How the values were obtained:
[1] = target: T1, Broad substrate specificity ATP-binding cassette transporter ABCG2 (Mus musculus, UniProt Q7TMS5); assay: TP_TRANSPORTER: transepithelial transport in Bcrp-expressing MDCKII cells; type: functional, cell-based; conditions: dog, mdck-ii
T1 sequence (Q7TMS5 whole entry): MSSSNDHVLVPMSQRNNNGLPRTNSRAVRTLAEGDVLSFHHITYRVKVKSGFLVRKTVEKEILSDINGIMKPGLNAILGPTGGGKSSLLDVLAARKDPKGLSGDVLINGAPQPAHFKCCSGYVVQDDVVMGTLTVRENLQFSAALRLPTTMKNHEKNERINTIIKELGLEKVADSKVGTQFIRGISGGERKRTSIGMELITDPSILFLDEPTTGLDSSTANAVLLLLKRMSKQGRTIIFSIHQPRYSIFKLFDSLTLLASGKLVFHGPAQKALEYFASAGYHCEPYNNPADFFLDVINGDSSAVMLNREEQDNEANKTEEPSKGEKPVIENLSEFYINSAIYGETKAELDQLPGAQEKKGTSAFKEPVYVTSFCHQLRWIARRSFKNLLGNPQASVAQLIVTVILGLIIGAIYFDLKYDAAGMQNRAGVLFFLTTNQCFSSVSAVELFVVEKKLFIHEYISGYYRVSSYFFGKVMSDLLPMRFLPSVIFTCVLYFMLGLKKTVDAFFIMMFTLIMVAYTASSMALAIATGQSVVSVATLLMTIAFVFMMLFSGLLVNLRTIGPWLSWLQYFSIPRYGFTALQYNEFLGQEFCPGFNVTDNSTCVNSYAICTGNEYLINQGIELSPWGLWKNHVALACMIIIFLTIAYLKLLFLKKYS

[2] = target: T2, Broad substrate specificity ATP-binding cassette transporter ABCG2 (Homo sapiens, UniProt Q9UNQ0); assay: TP_TRANSPORTER: uptake in membrane vesicle from BCRP-expressing Sf9 cells; type: functional, cell membranes
T2 sequence (Q9UNQ0 whole entry): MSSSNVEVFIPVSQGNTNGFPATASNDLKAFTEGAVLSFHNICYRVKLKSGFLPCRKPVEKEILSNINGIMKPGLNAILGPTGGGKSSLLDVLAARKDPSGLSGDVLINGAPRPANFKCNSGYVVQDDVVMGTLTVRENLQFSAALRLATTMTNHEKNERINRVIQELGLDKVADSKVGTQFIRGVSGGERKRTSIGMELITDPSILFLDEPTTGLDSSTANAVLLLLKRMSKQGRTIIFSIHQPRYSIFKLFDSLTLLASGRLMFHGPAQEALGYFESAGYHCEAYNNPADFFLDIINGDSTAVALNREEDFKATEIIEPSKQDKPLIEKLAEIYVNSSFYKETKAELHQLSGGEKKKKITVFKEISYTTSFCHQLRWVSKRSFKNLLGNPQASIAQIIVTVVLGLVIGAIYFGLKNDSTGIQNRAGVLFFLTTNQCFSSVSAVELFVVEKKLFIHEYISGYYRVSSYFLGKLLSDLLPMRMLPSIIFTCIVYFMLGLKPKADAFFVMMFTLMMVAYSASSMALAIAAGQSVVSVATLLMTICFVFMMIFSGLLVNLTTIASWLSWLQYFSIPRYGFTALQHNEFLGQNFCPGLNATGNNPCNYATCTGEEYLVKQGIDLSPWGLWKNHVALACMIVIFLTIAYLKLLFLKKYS

[3] = target: T2, Broad substrate specificity ATP-binding cassette transporter ABCG2; assay: TP_TRANSPORTER: inhibition of MTX uptake in membrane vesicle from BCRP-expressing Sf9 cell; type: functional, cell membranes

In the case of CC[C@@]1(O)C(=O)OCc2c1cc1n(c2=O)Cc2cc3c(CN(C)C)c(O)ccc3nc2-1 [TOPOTECAN], the Activity [1] is reported as “substrate []”.
For CN(Cc1cnc2nc(N)nc(N)c2n1)c1ccc(C(=O)N[C@@H](CCC(=O)O)C(=O)O)cc1 [METHOTREXATE], the Activity [2] was “substrate []”.
For COc1ccnc(C[S+]([O-])c2nc3ccc(OC(F)F)cc3[nH]2)c1OC (stereo not given) [PANTOPRAZOLE], the Km [1] was “substrate [Km=0.1-0.2mM]” and the IC50 ([3]; read-out: IC50) was 10 µM.
For COc1ccc2[nH]c([S+]([O-])Cc3ncc(C)c(OC)c3C)nc2c1 (stereo not given) [OMEPRAZOLE], the IC50 ([3]; sf9) was “inhibitor [IC50=10-50uM]”.
